Reference: US20250230193A1, “CYCLIC COMPOUND HAVING SELECTIVE KRAS INHIBITORY EFFECT ON HRAS AND NRAS” (CHUGAI SEIYAKU KABUSHIKI KAISHA, priority 2022, published 2025)

What was measured:
[1] = biological target: GDP-bound NRAS wild-type protein (Homo sapiens, UniProt P01111); experiment: Binding to NRAS by surface plasmon resonance (SPR), Single Cycle Kinetics; settings: SPR, GDP-bound NRAS wild-type vs GDP-bound KRAS wild-type
[2] = biological target: GDP-bound HRAS wild-type protein (Homo sapiens, UniProt P01112); experiment: Binding to HRAS by surface plasmon resonance (SPR), Single Cycle Kinetics; settings: SPR, GDP-bound HRAS wild-type vs GDP-bound KRAS wild-type
Chain of GDP-bound HRAS wild-type protein (P01112 whole entry): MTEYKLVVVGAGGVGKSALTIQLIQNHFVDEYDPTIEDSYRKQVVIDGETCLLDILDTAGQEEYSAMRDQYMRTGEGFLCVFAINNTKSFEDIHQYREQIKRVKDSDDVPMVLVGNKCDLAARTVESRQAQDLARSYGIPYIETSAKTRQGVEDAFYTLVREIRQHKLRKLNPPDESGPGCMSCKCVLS

Chain of GDP-bound NRAS wild-type protein (P01111 whole entry): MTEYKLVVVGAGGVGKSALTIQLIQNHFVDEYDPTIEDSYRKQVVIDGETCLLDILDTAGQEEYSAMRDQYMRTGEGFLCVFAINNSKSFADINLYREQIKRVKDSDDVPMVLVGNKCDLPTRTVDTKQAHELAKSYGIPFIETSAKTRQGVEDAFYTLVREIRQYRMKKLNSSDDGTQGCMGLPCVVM

Compound | NRAS/KRAS (ratio of KD value with respect to NRAS to KD value with respect to KRAS) [1] | HRAS/KRAS (ratio of KD value with respect to HRAS to KD value with respect to KRAS) [2]
C#CCN1CC(=O)N(C)[C@H]2C/C=C\CCN(C2=O)[C@@H](Cc2ccc(C)cc2)C(=O)N(C)CC(=O)N[C@@H](CCc2cc(F)c(C(F)(F)F)c(F)c2)C(=O)N2C[C@H](OCC)C[C@H]2C(=O)NC2(CC(C)(C)C2)C(=O)N(C)[C@@H](C2CCCC2)C(=O)N(C)[C@H](C(=O)N(C)C)CC(=O)N(C)[C@@H](CC(C)C)C(=O)N[C@@H]([C@@H](C)CC)C1=O [PP2052] | A (a compound having 10 or more and less than 20 is denoted as A) | A (a compound having 10 or more and less than 20 is denoted as A)
C#CC[C@H]1C(=O)N[C@@H]([C@@H](C)CC)C(=O)N(C)CC(=O)N(C)[C@H]2C/C=C\CCN(C2=O)[C@@H](Cc2ccc(C(F)(F)F)cc2)C(=O)N(C)CC(=O)N[C@@H](CCc2ccc(C(F)(F)F)c(OC)c2)C(=O)N2C[C@H](OCC)C[C@H]2C(=O)NC2(CC(C)(C)C2)C(=O)N(C)[C@@H](C2CCCC2)C(=O)N(C)[C@H](C(=O)N(C)CCC)CC(=O)N1C [PP2053] | A (a compound having 10 or more and less than 20 is denoted as A) | A (a compound having 10 or more and less than 20 is denoted as A)
CCC[C@H]1C(=O)N[C@@H]([C@@H](C)CC)C(=O)N(CCC)CC(=O)N(C)[C@H]2C/C=C\CCN(C2=O)[C@@H](Cc2ccc(C)cc2)C(=O)N(C)CC(=O)N[C@@H](CCc2ccc(C(F)(F)F)c(OC)c2)C(=O)N2C[C@H](OCC)C[C@H]2C(=O)NC2(CC(C)(C)C2)C(=O)N(C)[C@@H](C2CCCC2)C(=O)N(C)[C@H](C(=O)N(C)C)CC(=O)N1C [PP2054] | A (a compound having 10 or more and less than 20 is denoted as A) | A (a compound having 10 or more and less than 20 is denoted as A)
C#CC[C@H]1C(=O)N[C@@H]([C@@H](C)CC)C(=O)N(C)CC(=O)N(C)[C@H]2C/C=C\CCN(C2=O)[C@@H](Cc2ccc(C(F)(F)F)cc2)C(=O)N(C)CC(=O)N[C@@H](CCc2ccc(C(F)(F)F)c(OC)c2)C(=O)N2C[C@@H](C)C[C@H]2C(=O)NC2(CC(C)(C)C2)C(=O)N(C)[C@@H](C2CCCC2)C(=O)N(C)[C@H](C(=O)N(C)CC)CC(=O)N1C [PP2055] | A (a compound having 10 or more and less than 20 is denoted as A) | B (a compound having 3 or more and less than 10 is denoted as B)
C#CC[C@H]1C(=O)N[C@@H]([C@@H](C)CC)C(=O)N(C)CC(=O)N(C)[C@H]2C/C=C\CCN(C2=O)[C@@H](Cc2ccc(C(F)(F)F)cc2)C(=O)N(C)CC(=O)N[C@@H](CCc2ccc(C(F)(F)F)c(OC)c2)C(=O)N2C[C@@H](C)C[C@H]2C(=O)NC2(CC(C)(C)C2)C(=O)N(C)[C@@H](C2CCCC2)C(=O)N(C)[C@H](C(=O)N(C)CCC)CC(=O)N1C [PP2057] | A (a compound having 10 or more and less than 20 is denoted as A) | A (a compound having 10 or more and less than 20 is denoted as A)
C=CCN1CC(=O)N(C)[C@H]2C/C=C\CCN(C2=O)[C@@H](Cc2ccc(C)cc2)C(=O)N(C)CC(=O)N[C@@H](CCc2ccc(C(F)(F)F)c(OC)c2)C(=O)N2C[C@H](OCC)C[C@H]2C(=O)NC2(CC(C)(C)C2)C(=O)N(C)[C@@H](C2CCCC2)C(=O)N(C)[C@H](C(=O)N(C)C)CC(=O)N(C)[C@@H](CC(C)C)C(=O)N[C@@H]([C@@H](C)CC)C1=O [PP2058] | A (a compound having 10 or more and less than 20 is denoted as A) | A (a compound having 10 or more and less than 20 is denoted as A)
C#CC[C@H]1C(=O)N[C@@H]([C@@H](C)CC)C(=O)N(C)CC(=O)N(C)[C@H]2C/C=C\CCN(C2=O)[C@@H](Cc2ccc(C(F)(F)F)cc2)C(=O)N(C)CC(=O)N[C@@H](CCc2ccc(C(F)(F)F)c(OC)c2)C(=O)N2C[C@H](OCC)C[C@H]2C(=O)NC2(CCC2)C(=O)N(C)[C@@H](C2CCCC2)C(=O)N(C)[C@H](C(=O)N(C)CCC)CC(=O)N1C [PP2059] | A (a compound having 10 or more and less than 20 is denoted as A) | A (a compound having 10 or more and less than 20 is denoted as A)
C#CC[C@H]1C(=O)N[C@@H]([C@@H](C)CC)C(=O)N(C)CC(=O)N(C)[C@H]2C/C=C\CCN(C2=O)[C@@H](Cc2ccc(C(F)(F)F)cc2)C(=O)N(C)CC(=O)N[C@@H](CCc2ccc(C(F)(F)F)c(OC)c2)C(=O)N2C[C@@H](C)C[C@H]2C(=O)NC2(CCC2)C(=O)N(C)[C@@H](C2CCCC2)C(=O)N(C)[C@H](C(=O)N(C)CC)CC(=O)N1C [PP2061] | AA (a compound having 20 or more is denoted as AA) | A (a compound having 10 or more and less than 20 is denoted as A)
CCO[C@@H]1C[C@H]2C(=O)NC3(CC(C)(C)C3)C(=O)N(C)[C@@H](C(CC)CC)C(=O)N(C)[C@H](C(=O)N(C)C)CC(=O)N(C)[C@@H](CC)C(=O)N[C@@H]([C@@H](C)CC)C(=O)N(C)CC(=O)N(C)[C@H]3C/C=C\CCN(C3=O)[C@@H](Cc3ccc(C(F)(F)F)cc3)C(=O)N(C)CC(=O)N[C@@H](CCc3cc(F)c(C(F)(F)F)c(F)c3)C(=O)N2C1 [PP2062] | AA (a compound having 20 or more is denoted as AA) | A (a compound having 10 or more and less than 20 is denoted as A)
C#CC[C@H]1C(=O)N[C@@H]([C@@H](C)CC)C(=O)N(C)CC(=O)N(C)[C@H]2C/C=C\CCN(C2=O)[C@@H](Cc2ccc(C(F)(F)F)cc2)C(=O)N(C)CC(=O)N[C@@H](CCc2ccc(C(F)(F)F)c(OC)c2)C(=O)N2C[C@@H](C)C[C@H]2C(=O)NC2(CCC2)C(=O)N(C)[C@@H](C2CCCC2)C(=O)N(C)[C@H](C(=O)N(C)CCC)CC(=O)N1C [PP2063] | AA (a compound having 20 or more is denoted as AA) | A (a compound having 10 or more and less than 20 is denoted as A)
CCC[C@H]1C(=O)N[C@@H]([C@@H](C)CC)C(=O)N(C)CC(=O)N(C)[C@H]2C/C=C\CCN(C2=O)[C@@H](Cc2ccc(C)cc2)C(=O)N(C)CC(=O)N[C@@H](CCc2cc(F)c(C(F)(F)F)c(F)c2)C(=O)N2C[C@H](OCC)C[C@H]2C(=O)NC2(CC(C)(C)C2)C(=O)N(C)[C@@H](C(CC)CC)C(=O)N(C)[C@H](C(=O)N(C)C)CC(=O)N1C [PP2064] | A (a compound having 10 or more and less than 20 is denoted as A) | A (a compound having 10 or more and less than 20 is denoted as A)
CC[C@H](C)[C@@H]1NC(=O)[C@H](C(C)C)N(C)C(=O)C[C@@H](C(=O)N(C)CC)N(C)C(=O)[C@H](C2CCCC2)N(C)C(=O)C2(CCC2)NC(=O)[C@@H]2C[C@H](C)CN2C(=O)[C@H](CCc2ccc(C(F)(F)F)c(OC)c2)NC(=O)CN(C)C(=O)[C@H](Cc2ccc(C(F)(F)F)cc2)N2CC/C=C\C[C@@H](C2=O)N(C)C(=O)CN(C)C1=O [PP2065] | A (a compound having 10 or more and less than 20 is denoted as A) | B (a compound having 3 or more and less than 10 is denoted as B)
CCO[C@@H]1C[C@H]2C(=O)NC3(CC(C)(C)C3)C(=O)N(C)[C@@H](C(CC)CC)C(=O)N(C)[C@H](C(=O)N(C)C)CC(=O)N(C)[C@@H](CC)C(=O)N[C@@H]([C@@H](C)CC)C(=O)N(C)CC(=O)N(C)[C@H]3C/C=C\CCN(C3=O)[C@@H](Cc3ccc(C(F)(F)F)cc3)C(=O)N(C)CC(=O)N[C@@H](CCc3ccc(C(F)(F)F)c(OC)c3)C(=O)N2C1 [PP2066] | A (a compound having 10 or more and less than 20 is denoted as A) | B (a compound having 3 or more and less than 10 is denoted as B)
CCCN(C)C(=O)[C@@H]1CC(=O)N(C)[C@@H](C(C)C)C(=O)N[C@@H]([C@@H](C)CC)C(=O)N(C)CC(=O)N(C)[C@H]2C/C=C\CCN(C2=O)[C@@H](Cc2ccc(C(F)(F)F)cc2)C(=O)N(C)CC(=O)N[C@@H](CCc2ccc(C(F)(F)F)c(OC)c2)C(=O)N2C[C@@H](C)C[C@H]2C(=O)NC2(CCC2)C(=O)N(C)[C@@H](C2CCCC2)C(=O)N1C [PP2067] | AA (a compound having 20 or more is denoted as AA) | A (a compound having 10 or more and less than 20 is denoted as A)
CCC[C@H]1C(=O)N[C@@H]([C@@H](C)CC)C(=O)N(C)CC(=O)N(C)[C@H]2C/C=C\CCN(C2=O)[C@@H](Cc2ccc(C)cc2)C(=O)N(C)CC(=O)N[C@@H](CCc2ccc(C(F)(F)F)c(OC)c2)C(=O)N2C[C@H](OCC)C[C@H]2C(=O)NC2(CC(C)(C)C2)C(=O)N(C)[C@@H](C(CC)CC)C(=O)N(C)[C@H](C(=O)N(C)C)CC(=O)N1C [PP2068] | A (a compound having 10 or more and less than 20 is denoted as A) | B (a compound having 3 or more and less than 10 is denoted as B)
CC[C@H](C)[C@@H]1NC(=O)[C@H](C2CC2)N(C)C(=O)C[C@@H](C(=O)N(C)CC)N(C)C(=O)[C@H](C2CCCC2)N(C)C(=O)C2(CCC2)NC(=O)[C@@H]2C[C@H](C)CN2C(=O)[C@H](CCc2ccc(C(F)(F)F)c(OC)c2)NC(=O)CN(C)C(=O)[C@H](Cc2ccc(C(F)(F)F)cc2)N2CC/C=C\C[C@@H](C2=O)N(C)C(=O)CN(C)C1=O [PP2069] | AA (a compound having 20 or more is denoted as AA) | A (a compound having 10 or more and less than 20 is denoted as A)
